Patent US9157904B2, “Wnt antagonists and methods of treatment and screening” (OncoMed Pharmaceuticals, Inc., priority 2010, dated 2015)

Experiments:
Assay type in all cases: in vivo, NOD/SCID mice
PN13 tumors = experiment: Muc16 immunohistochemistry of treated PN13 tumors; conditions: vs control antibody
Protocol: The cell differentiation capability of FZD8-Fc was also evaluated in the OMP-PN13 pancreas tumor xenograft model. Dissociated OMP-PN13 cells (50,000 per animal) were injected subcutaneously into 6-8 week old male NOD/SCID mice. Tumor growth was monitored weekly and tumor measurements were initiated once tumors were palpable. On day 40 mice with average tumor volume of 114 mm^3 were randomized into 4 groups of 10 animals each. Animals were injected with either control antibody or FZD8-Fc (15 mg/kg). Administration of the FZD8-Fc and control antibody was performed via injection into the intraperitoneal cavity, twice weekly. After 19 days of treatment, the tumors were excised and immunohistochemistry analysis was performed using standard techniques. Briefly, tumors were fixed in formalin, embedded in paraffin, and tumor sections of 4 μm thickness were cut. After deparaffinization and hydration, the tumor sections were subjected to an antigen retrieval process in Tris buffer (pH 9.5). Sections were incubated with hydrogen peroxide (Sigma-Aldrich, St Louis, Mo.) for 10 minutes to block endogenous peroxidases. […]
Tumor sections from PN13 tumors treated with control antibody or FZD8-Fc were obtained and treated as described above. […] The bound antibody was detected using the immunohistochemistry protocol described above.

[1] = system: C28 colon tumor xenografts; experiment: C28 colon tumor xenograft, doses and dosing regimen; conditions: from day 2
Protocol: The effect of multiple doses and dosing regimen of FZD8-Fc (54F03) on the growth of C28 colon tumor xenografts was analyzed. Dissociated C28 cells (10,000 per animal) were injected subcutaneously into 6-8 week old male NOD/SCID mice. On day 2, mice were randomized into 6 groups of 10 animals each. Animals were injected with either control antibody or FZD8-Fc at doses of 1.5 mg/kg (twice a week), 5 mg/kg (once and twice a week) and 15 mg/kg (once and twice a week). Administration of the antibody and FZD8-Fc was performed via injection into the intraperitoneal cavity. Tumor growth was monitored weekly and tumor measurements were initiated once tumors were palpable. Tumors were measured twice a week and tumor volume was determined as described herein.

[2] = system: C28 colon tumor xenografts; experiment: C28 colon tumor xenograft, combination with irinotecan; conditions: C28 established tumors; FZD8-Fc 15 mg/kg once a week, irinotecan 15 mg/kg once a week, i.p.
Protocol: The effect of FZD8-Fc in combination with a chemotherapeutic agent on the growth of C28 colon tumor xenografts was analyzed. Dissociated C28 colon tumor cells (10,000 cells) were injected subcutaneously into 6-8 week old male NOD/SCID mice. Tumors were allowed to grow for 21 days until they reached an average volume of 128 mm^3. The mice were randomized (n=10 per group) and treated with FZD8-Fc (54F03) (15 mg/kg once a week), irinotecan (15 mg/kg once a week), a combination of FZD8-Fc and irinotecan or a control antibody. Administration of the FZD8-Fc, irinotecan and control antibody was performed via injection into the intraperitoneal cavity. Tumor growth was monitored and tumor volumes were measured with electronic calipers at the indicated time points. Data are expressed as mean±S.E.M.

PN21 pancreas tumor = PN21 pancreas tumor xenograft, tumor growth; conditions: FZD8-Fc 15 mg/kg i.p. once weekly
Protocol: The anti-tumor activity of FZD8-Fc (54F03) was evaluated in the PN21 pancreas tumor xenograft model. Dissociated OMP-PN21 cells (50,000 per animal) were injected subcutaneously into 6-8 week old male NOD/SCID mice. Tumor growth was monitored weekly and tumor measurements were initiated once tumors were palpable. On day 36, mice with average tumor volumes of 144 mm^3 were randomized into 4 groups of 9 animals each. Animals were injected with control antibody, FZD8-Fc (15 mg/kg), gemcitabine (2 mg/kg) or a combination of FZD8-Fc and gemcitabine. Administration of the FZD8-Fc and gemcitabine was performed via injection into the intraperitoneal cavity, once weekly. Tumors were measured twice a week and tumor volume was determined as described herein.

C28 tumors = experiment: CK20 immunohistochemistry of treated C28 tumors; conditions: vs control antibody
Protocol: Control and treated tumors from the C28 xenograft study described above (Example 6) were harvested at the end of the study. The tumors were excised and immunohistochemistry analysis was performed using standard techniques. Briefly, tumors were fixed in formalin, embedded in paraffin, and tumor sections of 4 um thickness were cut. After deparaffinization and hydration, the tumor sections were subjected to an antigen retrieval process in Tris buffer (pH 9.5). Sections were incubated with hydrogen peroxide (Sigma-Aldrich, St Louis, Mo.) for 10 minutes to block endogenous peroxidases. Anti-CK20 (clone Ks20.8, Dako, Carpinteria, Calif.) antibody in blocking buffer at 1:200 dilution (3% NHS, 1% BSA, 0.1% Tween-20, in PBS) was added to each section and incubated for 1 hour. Slides were rinsed 3 times in PBST for 5 minutes each. Anti-mouse secondary antibody conjugated with HRP (ImmPRESS™ anti-mouse Ig, Vector Laboratories Inc., Burlingame, Calif.) was added to the slides and incubated for 30 minutes. After multiple washes with PBST, Vector Nova Red substrate (Vector Laboratories Inc., Burlingame, Calif.) was added for localization of CK20 antigen.

54F03: Fri domain of human FZD8 fused to human IgG1 Fc with GRA linker; SEQ ID NO:1
cells expressing Muc16 (PN13 tumors): increase in cells expressing Muc16 | reduction of growth over control antibody ([1]; 1.5 mg/kg twice a week i.p.): 52% | reduction in tumor growth over control antibody ([1]; 15 mg/kg twice weekly i.p.): 83% | reduction in tumor growth over control antibody [2]: 66% | reduction in tumor growth as compared to control (PN21 pancreas tumor): 66% | cells expressing CK20 (C28 tumors): increase in cells expressing CK20
